These are literature values, as cited in US20070020218A1, “Composition and method for the treatment of psoriasis” (priority 2005, published 2007).

One data set concerns degenerative arthritis. Particulars: 2,250 mg daily for six weeks.
The subject of the next data set is knee osteoarthritis. Conditions: for persistence of benefits after treatment was stopped: followed for an additional 60 days after the 90 days of treatment; for reduction of symptoms: over 90 days of treatment.
For data set [1], the system named is osteoarthritis of the knee. Particulars: after 4 weeks, 252 people.
A further data set deals with arthritis of the knee. Particulars: 12 months, 104 individuals.
Data set [2] deals with osteoarthritis of the knee. Particulars: 85 people with osteoarthritis of the knee.
For data set [3] the following is noted: oral.

`CS(C)(=O)=O` [MSM, Methylsulfonyl methane]: the “reduction in pain on average” value in the data set on degenerative arthritis is reported as 82%.
For `N[C@H]1C(O)O[C@H](CO)[C@@H](O)[C@@H]1O.O=S(=O)(O)O` (stereo partly drawn) [glucosamine sulfate], in the data set with knee osteoarthritis, the “persistence of benefits after treatment was stopped” value is “lasted for the full 60 days” and the reduction of symptoms result was “equally effective”. In data set [1], the “pain and movement against placebo” value was “significantly reduced pain and improved movement”.
Take `CN1C(C(=O)Nc2ccccn2)=C(O)c2ccccc2S1(=O)=O` [piroxicam, reference compound]: in the data set on knee osteoarthritis, the “persistence of benefits after treatment was stopped” value is given as “rapidly disappeared” and the reduction of symptoms entry is reported as “equally effective”.
Consider chondroitin sulfate, for which, in the data set on arthritis of the knee, the “trial outcome against placebo” value is “Good results”. Further, the “participants with improved results” value in data set [2] is recorded as 69%. Besides, the chondroitin absorbed intact result in data set [3] is “up to 15%”.
